Measured values taken from article PMC5589878, “Development of Fluorescent Probes that Target Serotonin 5-HT2B Receptors” (Scientific Reports, 2017).

What was measured:
[1] = Absorption and emission spectra (photophysical properties); assay type: physicochemical; conditions: 10 μM solutions
Experimental: The absorption and emission spectra of the fluorescent 5-HT2 ligands (10 and 12) were determined on 10 μM solutions. The most relevant fluorescent properties are collected in Fig. 5. All of the synthesized derivatives emitted fluorescence in the visible region of the spectrum, with selected fluorescent tags (Fig. 4) providing distinctive properties and excitation wavelengths. The excitation wavelengths varied from 305 to 555 nm, whereas those for emission varied from 398 to 580 nm.

human 5-HT2C receptors = biological target: T1, human 5-HT2C receptors (Homo sapiens, UniProt P28335); assay: Radioligand competition binding assay at human 5-HT2C receptors
T1 construct: expressed in transfected cells; host or cells: HeLa-5-HT2C cells (membranes)
T1 sequence (P28335 33-458): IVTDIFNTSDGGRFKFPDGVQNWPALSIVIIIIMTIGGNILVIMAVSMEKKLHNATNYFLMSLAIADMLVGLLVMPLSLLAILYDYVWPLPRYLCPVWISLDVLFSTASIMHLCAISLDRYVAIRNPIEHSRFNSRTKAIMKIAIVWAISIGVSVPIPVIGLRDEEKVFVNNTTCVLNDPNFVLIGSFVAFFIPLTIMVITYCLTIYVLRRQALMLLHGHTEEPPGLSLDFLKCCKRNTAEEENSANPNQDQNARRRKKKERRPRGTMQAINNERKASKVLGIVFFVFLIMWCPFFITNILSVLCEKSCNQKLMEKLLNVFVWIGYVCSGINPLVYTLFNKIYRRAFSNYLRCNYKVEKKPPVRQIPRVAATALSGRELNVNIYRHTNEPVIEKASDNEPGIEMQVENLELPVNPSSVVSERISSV

5-HT2B receptors [2] = biological target: T2, 5-HT2B receptors (Homo sapiens, UniProt P41595); assay type: cell-based; conditions: 3 μM, 10 min at 37 °C; image analysis and plate reader; p < 0.001
T2 sequence (P41595 whole entry): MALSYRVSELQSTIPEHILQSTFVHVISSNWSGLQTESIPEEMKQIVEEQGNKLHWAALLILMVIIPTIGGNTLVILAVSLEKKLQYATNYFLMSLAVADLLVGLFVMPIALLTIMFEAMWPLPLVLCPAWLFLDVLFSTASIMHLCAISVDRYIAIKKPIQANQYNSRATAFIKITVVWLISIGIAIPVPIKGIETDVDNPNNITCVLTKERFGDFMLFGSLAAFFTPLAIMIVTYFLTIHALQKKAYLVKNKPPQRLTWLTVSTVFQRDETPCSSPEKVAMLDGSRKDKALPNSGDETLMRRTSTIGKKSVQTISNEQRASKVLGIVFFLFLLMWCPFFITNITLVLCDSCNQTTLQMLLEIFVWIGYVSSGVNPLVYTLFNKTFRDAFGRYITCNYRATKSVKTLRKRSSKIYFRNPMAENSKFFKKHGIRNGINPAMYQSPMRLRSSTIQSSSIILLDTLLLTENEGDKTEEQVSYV
Experimental: Having finished the preliminary photophysical and pharmacological characterization of the fluorescent derivatives 12a–i, their potential to specifically label 5-HT2B receptors in live cells was evaluated. Chinese hamster ovary K1 (CHO-K1) cells and CHO-K1 cells stably expressing the human serotonin 5-HT2B receptor (CHO-K1-5-HT2B), growing in 96-well plates, were incubated with at least three different concentrations of each compound for varying times and, after compound removal and washing of the cells, plates were subjected to fluorescence microscopy using a high content imaging instrument and the appropriate excitation and emission filter set for each compound.
For cell labelling studies, cells were plated onto 96-well plates (Cell Carrier; Perkin-Elmer, Waltham, MA, USA) pre-treated with poly-D-lysine hydrobromide 0.1 mg/mL (Sigma Aldrich, Spain) at a density of 10000 cells/well and cultured for 24 h. […] Fluorescence images were acquired using an Operetta high content imaging instrument (Perkin-Elmer, Waltham, MA, USA) at 20x and 40x magnification, at excitation wavelengths of 520–550 nm and emission wavelengths of 560–630 nm (standard 5-TAMRA filter set) for compound 12i, and excitation wavelengths of 360–400 nm and emission wavelengths of 410–480 nm for Hoechst 33342 (standard Hoechst 33342 filter set). […]

5-HT2A receptors [3] = biological target: T3, 5-HT2A receptors (Homo sapiens, UniProt P28223); assay: Radioligand competition binding assay at human 5-HT2A receptors; design: expressed in transfected cells; host or cells: CHO-FA4-5-HT2A cells (membranes)
T3 sequence (P28223 whole entry): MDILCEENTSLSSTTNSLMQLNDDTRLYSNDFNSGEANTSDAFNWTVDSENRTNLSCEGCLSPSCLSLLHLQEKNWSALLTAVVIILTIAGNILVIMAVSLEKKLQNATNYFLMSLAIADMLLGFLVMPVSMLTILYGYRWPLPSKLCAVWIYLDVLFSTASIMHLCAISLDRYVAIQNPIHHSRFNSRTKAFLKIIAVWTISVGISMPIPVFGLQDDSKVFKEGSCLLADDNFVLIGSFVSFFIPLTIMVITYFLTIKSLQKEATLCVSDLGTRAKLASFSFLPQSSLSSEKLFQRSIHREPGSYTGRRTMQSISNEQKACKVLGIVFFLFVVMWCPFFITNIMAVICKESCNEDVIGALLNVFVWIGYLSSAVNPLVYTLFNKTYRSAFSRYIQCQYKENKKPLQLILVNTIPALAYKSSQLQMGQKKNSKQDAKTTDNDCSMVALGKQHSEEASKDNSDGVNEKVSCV

5-HT2A receptors [4] = biological target: T3, 5-HT2A receptors; assay: Labelling of 5-HT2A receptors in live CHO-FA4-5-HT2A cells (fluorescence microscopy, plate reader); assay type: cell-based; design: expressed in transfected cells; host or cells: CHO-FA4-5-HT2A cells (live)
Experimental: The specificity and sensitivity of the 12i probe towards 5-HT2B receptors over other 5-HT2 receptor subtypes was evaluated by performing similar labelling experiments in CHO cells stably expressing 5-HT2A receptors (CHO-FA4-5-HT2A). […] However, even in these conditions (20 μM concentration of 12i) the signal window over background achieved for 5-HT2A labelling was considerably smaller than that detected in the case of 5-HT2B labelling at a concentration of 12i more than 6 times lower (3 μM) (Fig. 9 and Supplementary Figure S3).
For cell labelling studies, cells were plated onto 96-well plates (Cell Carrier; Perkin-Elmer, Waltham, MA, USA) pre-treated with poly-D-lysine hydrobromide 0.1 mg/mL (Sigma Aldrich, Spain) at a density of 10000 cells/well and cultured for 24 h. […] Fluorescence images were acquired using an Operetta high content imaging instrument (Perkin-Elmer, Waltham, MA, USA) at 20x and 40x magnification, at excitation wavelengths of 520–550 nm and emission wavelengths of 560–630 nm (standard 5-TAMRA filter set) for compound 12i, and excitation wavelengths of 360–400 nm and emission wavelengths of 410–480 nm for Hoechst 33342 (standard Hoechst 33342 filter set).
The fluorescence intensity of the cells labelled with compound 12i was quantified by image analysis of the acquired images using Harmony v3.5 software (Perkin-Elmer). […]

5-HT2B receptors [5] = biological target: T2, 5-HT2B receptors; assay: Functional assay of IPs accumulation at human 5-HT2B receptors; assay type: cell-based
Experimental: After 24 h, growth medium was replaced by serum-free medium containing 10 μCi/mL [^3H]myo-inositol (20.3 Ci/mmol, Perkin-Elmer) for 24 h. […] After the incubation time, assay buffer was discarded and 200 μL of 100 mM formic acid was added to the cells for 30 min at 4 °C and 20 μL of the lysate were transferred to a flexiplate plate (Perkin-Elmer, Waltham, MA, USA) together with 80 μL of a solution of RNA Binding YSi SPA Beads (Perkin-Elmer, Waltham, MA, USA) to measure accumulation of [^3H]IPs (IP1,IP2, and IP3, collectively referred to as IPs).

5-HT2B receptors [6] = biological target: T2, 5-HT2B receptors; assay: Radioligand competition binding assay at human 5-HT2B receptors
[7] = test system: tumor necrosis factor alpha (TNF-α); conditions: primary aortic smooth muscle cells and animal models; cited from earlier work

| SMILES | melting point | Δλ (Stokes shift) [1] | εmax [1] | λmax Abs [1] | λmax Em [1] | Ki (human 5-HT2C receptors) | fluorescence intensity of CHO-K1-5-HT2B cell wells versus control CHO-K1 cell wells (5-HT2B receptors [2]) | Ki (5-HT2A receptors [3]) | specific labelling of 5-HT2A receptors in CHO-FA4-5-HT2A cells (5-HT2A receptors [4]; 3 μM) | specific labelling of 5-HT2A receptors in CHO-FA4-5-HT2A cells (5-HT2A receptors [4]; 20 μM) | EC50 (5-HT2B receptors [5]) | Ki (5-HT2B receptors [6]) | potency of blockade of the pro-inflammatory effects of TNF-α [7] |
| --- | --- | --- | --- | --- | --- | --- | --- | --- | --- | --- | --- | --- | --- |
| CCN(CC)c1ccc2c(-c3ccccc3C(=O)NCCC(=O)NCCC(=O)NCCCOCCOCCOCCCNC(=O)CCCOc3cc(I)c(OC)cc3CC(C)N)c3ccc(=[N+](CC)CC)cc-3oc2c1 (stereo not shown) [12i, N-(9-(2-((26-(2-(2-aminopropyl)-5-iodo-4-methoxyphenoxy)-3,7,23-trioxo-12,15,18-trioxa-4,8,22-triazahexacosyl)carbamoyl)phenyl)-6-(diethylamino)-3H-xanthen-3-ylidene)-N-ethylethanaminium] | 151 to 153 °C | 25 nm | 78828 M⁻¹ cm⁻¹ | 555 nm | 580 nm | 994 nM | clearly superior | 1220 nM | no statistically significant specific labelling | certain specific labelling | 225 nM | 262 nM | – |
| COc1cc(CC(C)N)c(OC)cc1I (stereo not shown) [DOI, 1-(2,5-Dimethoxy-4-iodophenyl)-propan-2-amine, reference compound] | – | – | – | – | – | 18.2 nM | – | – | – | – | 11.7 nM | 48.2 nM | ≈ 15 pM |
